# Results from patent publication US20220323548A1 (priority 2019, published 2022).
# Positions of bridges follow the written chain, without caps; N, C: chain ends. Chains are numbered I, II in the order given. No end group written: not given here. *: point of attachment. X1 = CC(=O)N[C@@H]1[C@@H](O)[C@H](O[C@@H]2O[C@H](CO)[C@@H](O[C@@H]3O[C@H](CO[C@H]4O[C@H](CO)[C@@H](O)[C@H](O)[C@@H]4O[C@@H]4O[C@H](CO)[C@@H](O[C@@H]5O[C@H](CO[C@]6(C(=O)OCc7ccccc7)C[C@H](O)[C@@H](NC(C)=O)[C@H]([C@H](O)[C@H](O)CO)O6)[C@H](O)[C@H](O)[C@H]5O)[C@H](O)[C@H]4NC(C)=O)[C@@H](O)[C@H](O[C@H]4O[C@H](CO)[C@@H](O)[C@H](O)[C@@H]4O[C@@H]4O[C@H](CO)[C@@H](O[C@@H]5O[C@H](CO[C@]6(C(=O)OCc7ccccc7)C[C@H](O)[C@@H](NC(C)=O)[C@H]([C@H](O)[C@H](O)CO)O6)[C@H](O)[C@H](O)[C@H]5O)[C@H](O)[C@H]4NC(C)=O)[C@@H]3O)[C@H](O)[C@H]2NC(C)=O)[C@@H](CO)O[C@H]1NC(=O)C*; undeca‑saccharide = not defined here; Decanoyl = CCCCCCCCCC(=O)*
# How the values were obtained:
# [1] = tested on: rat islets; assay: Glucose-dependent insulin secretion from rat islets, rat insulin ELISA (part II); assay type: cell-based; conditions: 28 mM glucose, Table 9
# Text: The pancreas of 8-week-old SD rats (Damul Science) was extracted, and islets were isolated.
# [2] = biological target: human GLP-1R (Homo sapiens, UniProt P43220); assay: GLP-1 receptor luciferase reporter assay (part II, dimer analogs); conditions: CV-1 cells transfected with human GLP-1R and CRE, Table 8
# Experimental: Specifically, the fibroblast cell line CV-1 (1×10^4 cells/ml, Korea Cell Line Bank) was cultured on a 96-well white cell culture plate for 24 hours, and then human GLP-1R (pcDNA3.1_hGLP-1R) and cAMP response element (CRE, pcDNA3.1_hCRE) were added to perform transfection. After 24 hours, the medium was exchanged with a serum-free medium, followed by culture for 16 hours, and then each analog was treated for 6 hours. The expression level of luciferase, a reporter gene, by activated GLP-1R, was quantified by a luminometer, and the results are shown in Table 8.
# [3] = tested on: C57BKS/J dbdb mice; assay: Anti-diabetic (blood glucose lowering) effect in Type 2 diabetes mouse models; conditions: 20 nmole/kg s.c., 0-48 hours
# [4] = Pharmacokinetics after subcutaneous administration, Exendin-4 EIA (part II); conditions: mouse, in vivo, sc
# [5] = biological target: T1, human GLP-1R (human, UniProt P43220 24-463); assay: cell-based or functional assay
# [6] = biological target: T1, human GLP-1R; assay: cell-based or functional assay; remark: listed apart in the source
# Sequence of human GLP-1R (Homo sapiens, UniProt P43220) (P43220 24-463): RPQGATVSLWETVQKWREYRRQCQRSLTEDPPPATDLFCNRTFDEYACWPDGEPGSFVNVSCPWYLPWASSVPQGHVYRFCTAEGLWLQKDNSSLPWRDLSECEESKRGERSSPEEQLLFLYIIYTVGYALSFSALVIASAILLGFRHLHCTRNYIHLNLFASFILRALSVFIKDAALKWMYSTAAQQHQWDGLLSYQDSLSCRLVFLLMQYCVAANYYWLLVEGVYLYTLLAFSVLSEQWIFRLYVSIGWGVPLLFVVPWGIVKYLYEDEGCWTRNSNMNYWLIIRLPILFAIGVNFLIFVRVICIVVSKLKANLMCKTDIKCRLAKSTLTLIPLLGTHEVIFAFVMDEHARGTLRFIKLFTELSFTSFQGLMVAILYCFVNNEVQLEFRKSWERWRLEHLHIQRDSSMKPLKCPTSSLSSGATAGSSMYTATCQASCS
Molecule,Insulin secretion from rat islets ([1]; 10 nM analog),Insulin secretion from rat islets ([1]; 100 nM analog),Emax (fold induction over basal) [2],anti-diabetic effect (blood glucose lowering) [3],Tmax [4],half-life [4],fold change of EC50 level compared with Ex4 (luciferase reporter) [5],"Emax (fold induction over basal), CRE-luciferase reporter [6]"
"CCCCCCCCCC(=O)NCCCC[C@H](NC(=O)[C@H](CO)NC(=O)[C@@H]1CCCN1C(=O)CNC(=O)CNC(=O)[C@H](CC(N)=O)NC(=O)[C@H](CCCCN)NC(=O)[C@H](CC(C)C)NC(=O)[C@H](Cc1c[nH]c2ccccc12)NC(=O)[C@H](CSCC(=O)N[C@@H]1O[C@H](CO)[C@@H](O[C@@H]2O[C@H](CO)[C@@H](O[C@@H]3O[C@H](CO[C@H]4O[C@H](CO)[C@@H](O)[C@H](O)[C@@H]4O[C@@H]4O[C@H](CO)[C@@H](O[C@@H]5O[C@H](CO[C@]6(C(=O)OCc7ccccc7)C[C@H](O)[C@@H](NC(C)=O)[C@H]([C@H](O)[C@H](O)CO)O6)[C@H](O)[C@H](O)[C@H]5O)[C@H](O)[C@H]4NC(C)=O)[C@@H](O)[C@H](O[C@H]4O[C@H](CO)[C@@H](O)[C@H](O)[C@@H]4O[C@@H]4O[C@H](CO)[C@@H](O[C@@H]5O[C@H](CO[C@]6(C(=O)OCc7ccccc7)C[C@H](O)[C@@H](NC(C)=O)[C@H]([C@H](O)[C@H](O)CO)O6)[C@H](O)[C@H](O)[C@H]5O)[C@H](O)[C@H]4NC(C)=O)[C@@H]3O)[C@H](O)[C@H]2NC(C)=O)[C@H](O)[C@H]1NC(C)=O)NC(=O)[C@@H](NC(=O)[C@H](Cc1ccccc1)NC(=O)[C@H](CC(C)C)NC(=O)[C@H](CCCNC(=N)N)NC(=O)[C@@H](NC(=O)[C@H](C)NC(=O)[C@H](CSSC[C@H](NC(=O)[C@H](CCC(=O)O)NC(=O)[C@H](CCC(=O)O)NC(=O)[C@H](CCSC)NC(=O)[C@H](CCC(N)=O)NC(=O)[C@H](CCCCN)NC(=O)[C@H](CO)NC(=O)[C@H](CC(C)C)NC(=O)[C@H](CC(=O)O)NC(=O)[C@H](CO)NC(=O)[C@@H](NC(=O)[C@H](Cc1ccccc1)NC(=O)[C@@H](NC(=O)CNC(=O)[C@H](CCC(=O)O)NC(=O)CNC(=O)[C@@H](N)Cc1c[nH]cn1)[C@@H](C)O)[C@@H](C)O)C(=O)N[C@@H](C)C(=O)N[C@H](C(=O)N[C@@H](CCCNC(=N)N)C(=O)N[C@@H](CC(C)C)C(=O)N[C@@H](Cc1ccccc1)C(=O)N[C@H](C(=O)N[C@@H](CSCC(=O)N[C@@H]1O[C@H](CO)[C@@H](O[C@@H]2O[C@H](CO)[C@@H](O[C@@H]3O[C@H](CO[C@H]4O[C@H](CO)[C@@H](O)[C@H](O)[C@@H]4O[C@@H]4O[C@H](CO)[C@@H](O[C@@H]5O[C@H](CO[C@]6(C(=O)OCc7ccccc7)C[C@H](O)[C@@H](NC(C)=O)[C@H]([C@H](O)[C@H](O)CO)O6)[C@H](O)[C@H](O)[C@H]5O)[C@H](O)[C@H]4NC(C)=O)[C@@H](O)[C@H](O[C@H]4O[C@H](CO)[C@@H](O)[C@H](O)[C@@H]4O[C@@H]4O[C@H](CO)[C@@H](O[C@@H]5O[C@H](CO[C@]6(C(=O)OCc7ccccc7)C[C@H](O)[C@@H](NC(C)=O)[C@H]([C@H](O)[C@H](O)CO)O6)[C@H](O)[C@H](O)[C@H]5O)[C@H](O)[C@H]4NC(C)=O)[C@@H]3O)[C@H](O)[C@H]2NC(C)=O)[C@H](O)[C@H]1NC(C)=O)C(=O)N[C@@H](Cc1c[nH]c2ccccc12)C(=O)N[C@@H](CC(C)C)C(=O)N[C@@H](CCCCN)C(=O)N[C@@H](CC(N)=O)C(=O)NCC(=O)NCC(=O)N1CCC[C@H]1C(=O)N[C@@H](CO)C(=O)N[C@@H](CCCCNC(=O)CCCCCCCCC)C(=O)O)[C@@H](C)CC)C(C)C)NC(=O)[C@H](CCC(=O)O)NC(=O)[C@H](CCC(=O)O)NC(=O)[C@H](CCSC)NC(=O)[C@H](CCC(N)=O)NC(=O)[C@H](CCCCN)NC(=O)[C@H](CO)NC(=O)[C@H](CC(C)C)NC(=O)[C@H](CC(=O)O)NC(=O)[C@H](CO)NC(=O)[C@@H](NC(=O)[C@H](Cc1ccccc1)NC(=O)[C@@H](NC(=O)CNC(=O)[C@H](CCC(=O)O)NC(=O)CNC(=O)[C@@H](N)Cc1c[nH]cn1)[C@@H](C)O)[C@@H](C)O)C(C)C)[C@@H](C)CC)C(=O)O [AGM-212-1, AGM-212(E17C & E24C-11 sugar)-S-S-AGM-212(E17C & E24C-11 sugar)]",14506.04 ± 3493.9 pg/mL,20080 ± 8384.9 pg/mL,10.1 ± 1.2 fold induction over basal,reduced anti-diabetic effect,–,–,–,–
"I: H-HGEGTFTSDLSKQMEECAVRLFIEWLKC(X1)GGPSK(Decanoyl)-OH / II: H-HGEGTFTSDLSKQMEECAVRLFIEWLKC(X1)GGPSK(Decanoyl)-OH (disulfide I:17-II:17) [AGM-212-2, AGM-212(E17C & N28C-11 sugar)-S-S-AGM-212(E17C & N28C-11 sugar)]",14446.79 ± 654.34 pg/mL,24954.72 ± 2741.89 pg/mL,10.2 ± 1.3 fold induction over basal,increased degree of blood glucose lowering compared with Ex4 and AGM-212,2 h,4.85 h,–,–
HGEGTFTSDLSKQMEECAVRLFIEWLKC(undeca‑saccharide)GGPSK(Decanoyl) (reading uncertain; also: homodimer via Cys17–Cys17 disulfide) [AGM-212-2],–,–,–,–,–,–,≥ 6 fold,10.2 fold induction over basal
